Results taken from PubChem BioAssay (NCI).
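These data come from cells grown in 96-well plates and exposed to compound for 48 hours at five concentrations. The concentration for full growth arrest is given as TGI.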

Key:
Assay in all cases: growth of human tumour cells (NCI), 48 h
NCI-H23 lung = test system: NCI-H23 lung
OVCAR-4 ovarian = test system: OVCAR-4 ovarian
BT-549 breast = test system: BT-549 breast
LOX IMVI melanoma = test system: LOX IMVI melanoma
MDA-N = test system: MDA-N
SR leukemia = test system: SR leukemia
SF-268 CNS = test system: SF-268 CNS
UACC-62 melanoma = test system: UACC-62 melanoma
EKVX NSCLC = test system: EKVX NSCLC
SK-MEL-5 melanoma = test system: SK-MEL-5 melanoma
UACC-257 melanoma = test system: UACC-257 melanoma
M14 melanoma = test system: M14 melanoma
SF-539 CNS = test system: SF-539 CNS
KM12 colon = test system: KM12 colon
A498 renal = test system: A498 renal
HL-60(TB) leukemia = test system: HL-60(TB) leukemia
MDA-MB-435 = test system: MDA-MB-435
SK-OV-3 ovarian = test system: SK-OV-3 ovarian
MALME-3M melanoma = test system: MALME-3M melanoma

CCOC(=O)c1ccc(OCc2nc3cc(C(F)(F)F)ccc3nc2-c2ccccc2)cc1
TGI (NCI-H23 lung): > 100 µM
TGI (OVCAR-4 ovarian): > 100 µM
TGI (BT-549 breast): > 100 µM
TGI (LOX IMVI melanoma): > 100 µM
TGI (MDA-N): > 100 µM
TGI (SR leukemia): > 100 µM
TGI (SF-268 CNS): > 100 µM
TGI (UACC-62 melanoma): > 100 µM
TGI (EKVX NSCLC): > 100 µM
TGI (SK-MEL-5 melanoma): > 100 µM
TGI (UACC-257 melanoma): > 100 µM
TGI (M14 melanoma): > 100 µM
TGI (SF-539 CNS): > 100 µM
TGI (KM12 colon): > 100 µM
TGI (A498 renal): > 100 µM
TGI (HL-60(TB) leukemia): > 100 µM
TGI (MDA-MB-435): > 100 µM

COc1c(N2CCCCC2)c2c(=O)c3ccccc3oc2c2cc(C)oc12
TGI (NCI-H23 lung): > 100 µM
TGI (SK-OV-3 ovarian): > 100 µM
TGI (OVCAR-4 ovarian): > 100 µM
TGI (BT-549 breast): 97.9 µM
TGI (MALME-3M melanoma): 81 µM
TGI (LOX IMVI melanoma): 86.5 µM
TGI (MDA-N): 63.9 µM
TGI (SF-268 CNS): > 100 µM
TGI (UACC-62 melanoma): 68.3 µM
TGI (EKVX NSCLC): 89.1 µM
TGI (SK-MEL-5 melanoma): 40.7 µM
TGI (UACC-257 melanoma): > 100 µM
TGI (M14 melanoma): 53.6 µM
TGI (SF-539 CNS): > 100 µM
TGI (KM12 colon): 62.4 µM
TGI (A498 renal): 61.6 µM
TGI (HL-60(TB) leukemia): 58 µM
TGI (MDA-MB-435): > 100 µM

O=P1(N(CCCl)CCCl)Oc2c(Cl)cc(Cl)c(Cl)c2Cc2c(Cl)c(Cl)cc(Cl)c2O1
TGI (NCI-H23 lung): > 100 µM
TGI (SK-OV-3 ovarian): > 100 µM
TGI (OVCAR-4 ovarian): > 100 µM
TGI (BT-549 breast): > 100 µM
TGI (LOX IMVI melanoma): > 100 µM
TGI (MDA-N): > 100 µM
TGI (SR leukemia): > 100 µM
TGI (SF-268 CNS): > 100 µM
TGI (UACC-62 melanoma): > 100 µM
TGI (EKVX NSCLC): > 100 µM
TGI (SK-MEL-5 melanoma): > 100 µM
TGI (UACC-257 melanoma): > 100 µM
TGI (M14 melanoma): > 100 µM
TGI (SF-539 CNS): > 100 µM
TGI (KM12 colon): > 100 µM
TGI (A498 renal): > 100 µM
TGI (HL-60(TB) leukemia): > 100 µM
TGI (MDA-MB-435): > 100 µM

CC1OC1P(=O)(O)O (stereo unspecified)
TGI (NCI-H23 lung): > 100 µM
TGI (SK-OV-3 ovarian): > 100 µM
TGI (OVCAR-4 ovarian): > 100 µM
TGI (BT-549 breast): > 100 µM
TGI (LOX IMVI melanoma): > 100 µM
TGI (MDA-N): > 100 µM
TGI (SR leukemia): > 100 µM
TGI (SF-268 CNS): > 100 µM
TGI (UACC-62 melanoma): > 100 µM
TGI (EKVX NSCLC): > 100 µM
TGI (SK-MEL-5 melanoma): > 100 µM
TGI (UACC-257 melanoma): > 100 µM
TGI (KM12 colon): > 100 µM
TGI (A498 renal): > 100 µM
TGI (MDA-MB-435): > 100 µM

CCOC(=O)CC[C@H](NC(=O)c1ccc(CNc2nc3cc(C(F)(F)F)ccc3nc2C(=O)OCC)cc1)C(=O)OCC
TGI (NCI-H23 lung): > 100 µM
TGI (SK-OV-3 ovarian): > 100 µM
TGI (BT-549 breast): 70.3 µM
TGI (MALME-3M melanoma): 50.3 µM
TGI (LOX IMVI melanoma): > 100 µM
TGI (MDA-N): > 100 µM
TGI (SR leukemia): > 100 µM
TGI (SF-268 CNS): 34.4 µM
TGI (UACC-62 melanoma): 43 µM
TGI (EKVX NSCLC): 42.7 µM
TGI (SK-MEL-5 melanoma): > 66.6 µM
TGI (UACC-257 melanoma): > 100 µM
TGI (M14 melanoma): > 66.2 µM
TGI (SF-539 CNS): 17.3 µM
TGI (KM12 colon): > 100 µM
TGI (A498 renal): > 100 µM
TGI (HL-60(TB) leukemia): > 100 µM
TGI (MDA-MB-435): > 100 µM

Cc1cc2nn(C3CCCCO3)nc2cc1C (stereo unspecified)
TGI (NCI-H23 lung): > 100 µM
TGI (SK-OV-3 ovarian): > 100 µM
TGI (OVCAR-4 ovarian): > 100 µM
TGI (BT-549 breast): > 100 µM
TGI (MALME-3M melanoma): > 100 µM
TGI (MDA-N): > 100 µM
TGI (SR leukemia): > 100 µM
TGI (SF-268 CNS): > 100 µM
TGI (UACC-62 melanoma): > 100 µM
TGI (EKVX NSCLC): > 100 µM
TGI (SK-MEL-5 melanoma): > 100 µM
TGI (UACC-257 melanoma): > 100 µM
TGI (M14 melanoma): > 100 µM
TGI (SF-539 CNS): > 100 µM
TGI (KM12 colon): > 100 µM
TGI (A498 renal): > 100 µM
TGI (MDA-MB-435): > 100 µM

O=S(=O)(Nc1nc2ccccc2nc1Nc1cccc2ccccc12)c1ccccc1
TGI (NCI-H23 lung): 64.4 µM
TGI (SK-OV-3 ovarian): > 100 µM
TGI (OVCAR-4 ovarian): 5.99 µM
TGI (BT-549 breast): > 100 µM
TGI (MALME-3M melanoma): > 100 µM
TGI (LOX IMVI melanoma): > 100 µM
TGI (MDA-N): > 100 µM
TGI (SR leukemia): > 100 µM
TGI (SF-268 CNS): > 100 µM
TGI (UACC-62 melanoma): > 100 µM
TGI (EKVX NSCLC): > 100 µM
TGI (SK-MEL-5 melanoma): > 100 µM
TGI (UACC-257 melanoma): > 100 µM
TGI (M14 melanoma): > 100 µM
TGI (SF-539 CNS): > 100 µM
TGI (KM12 colon): > 100 µM
TGI (MDA-MB-435): > 100 µM

Cc1cccc(-c2cccc(COCc3cccc(-c4cccc(CO)n4)n3)n2)n1
TGI (SK-OV-3 ovarian): > 50 µM
TGI (OVCAR-4 ovarian): > 50 µM
TGI (BT-549 breast): > 50 µM
TGI (LOX IMVI melanoma): > 50 µM
TGI (MDA-N): > 50 µM
TGI (SR leukemia): > 50 µM
TGI (SF-268 CNS): > 50 µM
TGI (UACC-62 melanoma): > 50 µM
TGI (EKVX NSCLC): > 50 µM
TGI (SK-MEL-5 melanoma): > 50 µM
TGI (UACC-257 melanoma): > 50 µM
TGI (M14 melanoma): > 50 µM
TGI (SF-539 CNS): > 50 µM
TGI (KM12 colon): > 50 µM
TGI (A498 renal): > 50 µM
TGI (HL-60(TB) leukemia): > 50 µM
TGI (MDA-MB-435): > 50 µM

O=C1c2ccccc2-c2nc(-c3cccs3)cc3c2c1nc1ccccc13
TGI (NCI-H23 lung): 38.8 µM
TGI (SK-OV-3 ovarian): > 100 µM
TGI (OVCAR-4 ovarian): > 100 µM
TGI (BT-549 breast): > 100 µM
TGI (MALME-3M melanoma): 23.1 µM
TGI (LOX IMVI melanoma): 35.9 µM
TGI (MDA-N): 20.4 µM
TGI (SR leukemia): 34.5 µM
TGI (SF-268 CNS): 56.8 µM
TGI (UACC-62 melanoma): 19.3 µM
TGI (EKVX NSCLC): > 100 µM
TGI (UACC-257 melanoma): 37.3 µM
TGI (M14 melanoma): 18.3 µM
TGI (SF-539 CNS): > 100 µM
TGI (KM12 colon): > 100 µM
TGI (HL-60(TB) leukemia): 26.5 µM
TGI (MDA-MB-435): 4.51 µM

Cc1cccc(C)c1NC(=O)C(=O)C(c1ccccc1Cl)S(=O)(=O)Cc1ccccc1Cl (stereo unspecified)
TGI (NCI-H23 lung): > 76.9 µM
TGI (SK-OV-3 ovarian): > 61 µM
TGI (OVCAR-4 ovarian): > 100 µM
TGI (BT-549 breast): > 83.5 µM
TGI (LOX IMVI melanoma): > 100 µM
TGI (MDA-N): > 100 µM
TGI (SR leukemia): > 100 µM
TGI (SF-268 CNS): 66.6 µM
TGI (UACC-62 melanoma): > 100 µM
TGI (EKVX NSCLC): > 100 µM
TGI (SK-MEL-5 melanoma): > 100 µM
TGI (UACC-257 melanoma): > 100 µM
TGI (M14 melanoma): > 100 µM
TGI (SF-539 CNS): 39.2 µM
TGI (KM12 colon): > 100 µM
TGI (HL-60(TB) leukemia): 0.533 µM
TGI (MDA-MB-435): > 100 µM
